Entries after “also recorded” stand apart in the source; their conditions may differ.
Legend:
NPR1-GFP = target: T1, NPR1-GFP (Arabidopsis thaliana, UniProt P93002); test: Localization of NPR1-GFP and sim3-GFP, transient expression in Arabidopsis seedlings; type: cell-based; settings: for nuclear-cytoplasmic partitioning of NPR1-GFP: 2 hr
T1 construct: expressed in transfected cells; host or cells: Arabidopsis Col-0 seedlings, Agrobacterium-mediated transient expression
T1 sequence (P93002 1-593): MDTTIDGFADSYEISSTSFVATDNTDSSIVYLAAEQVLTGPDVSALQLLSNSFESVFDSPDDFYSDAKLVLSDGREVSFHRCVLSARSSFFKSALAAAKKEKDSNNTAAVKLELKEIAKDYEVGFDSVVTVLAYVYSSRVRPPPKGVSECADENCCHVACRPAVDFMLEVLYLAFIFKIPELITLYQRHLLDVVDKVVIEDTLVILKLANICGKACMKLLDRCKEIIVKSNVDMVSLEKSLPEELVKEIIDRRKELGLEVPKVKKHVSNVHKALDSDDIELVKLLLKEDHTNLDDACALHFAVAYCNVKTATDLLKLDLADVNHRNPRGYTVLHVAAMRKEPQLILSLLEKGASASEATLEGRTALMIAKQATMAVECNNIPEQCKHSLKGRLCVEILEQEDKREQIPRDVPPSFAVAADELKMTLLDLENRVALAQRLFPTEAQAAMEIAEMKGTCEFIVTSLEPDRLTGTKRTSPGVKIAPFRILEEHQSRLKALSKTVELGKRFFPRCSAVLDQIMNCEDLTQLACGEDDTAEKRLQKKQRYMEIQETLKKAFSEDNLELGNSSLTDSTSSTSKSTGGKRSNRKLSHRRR

CUL3 = test: Co-IP of Myc-CUL3 with HA-fused NPR1 or variants; type: binding, Arabidopsis thaliana; settings: for CUL3 pull-down signal in co-IP: 1 mM SA for 5 hr
[1] = tested on: cytoplasmic condensates (SINCs); test: Confocal imaging of localization and condensate (body) formation of GFP-fused NPR proteins and variants; type: cell-based, Nicotiana benthamiana; settings: for SA-induced cytoplasmic body/condensate (SINC) formation: 5 mM SA for 2 hr
Outline: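 GFP fusions transiently expressed in N. benthamiana by Agrobacterium infiltration (OD600 1). For NPR1-GFP, 4-day Arabidopsis seedlings were vacuum-infiltrated and, at 48 hpi, soaked 2 h in water or SA. Airyscan confocal, 40× water objective, GFP ex 488 nm/em 505-530 nm; condensate number, size and intensity scored by automated thresholding.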

FLAG-WRKY70 = test: NPR1-CRL3 ubiquitination cascade reconstituted in E. coli; type: biochemical, Arabidopsis thaliana; settings: 1 mM sodium salicylate
[2] = 5 mM SA, single-cell imaging for 2 hr starting 40 min after induction

## O=C(O)c1ccccc1O [SA, salicylic acid]
NPR1-GFP; 1 mM SA
  nuclear-cytoplasmic partitioning of NPR1-GFP: predominant nuclear accumulation of NPR1-GFP
NPR1-GFP; 5 mM SA
  nuclear-cytoplasmic partitioning of NPR1-GFP: fluorescence was detected also in the cytoplasm
NPR1-GFP; SA treatment 2 hr
  formation of NPR1-GFP bodies in nucleus and cytoplasm: induced formation of discrete NPR1-GFP bodies
CUL3; 0-1 mM SA, 5 hr
  NPR1-CUL3 and sim3-CUL3 interaction under dose response to SA: increase in the interaction

## NPR1: wild-type Arabidopsis thaliana NPR1 protein, positive regulator of systemic acquired resistance
[1]
  SA-induced cytoplasmic body/condensate (SINC) formation: significant SA-inducible cytoplasmic body formation
[1]; [2]
  number of bodies, time-lapse: started to decrease after 50 min
  total fluorescence from each body, time-lapse: gradual increase in the signal intensity over time
CUL3
  CUL3 pull-down signal in co-IP: weak pull-down signal of CUL3
FLAG-WRKY70
  ubiquitination of WRKY70 in reconstituted NPR1-CRL3 cascade: could mediate ubiquitination of WRKY70

B1: sim3: SUMOylation-deficient mutant of NPR1 (protein)
chain: MDTTIDGFADSYEISSTSFVATDNTDSSIVYLAAEQVLTGPDVSALQLLSNSFESVFDSPDDFYSDAKLVLSDGREVSFHRCVLSARSSFFKSALAAAKKEKDSNNTAAVKLELKEIAKDYEVGFDSVVTVLAYVYSSRVRPPPKGVSECADENCCHVACRPAVDFMLEVLYLAFIFKIPELITLYQRHLLDVVDKVVIEDTLVILKLANICGKACMKLLDRCKEIIVKSNVDMVSLEKSLPEELVKEIIDRRKELGLEVPKVKKHVSNVHKALDSDDIELVKLLLKEDHTNLDDACALHFAVAYCNVKTATDLLKLDLADVNHRNPRGYTVLHVAAMRKEPQLAASALEKGASASEATLEGRTALMIAKQATMAVECNNIPEQCKHSLKGRLCVEILEQEDKREQIPRDVPPSFAVAADELKMTLLDLENRVALAQRLFPTEAQAAMEIAEMKGTCEFIVTSLEPDRLTGTKRTSPGVKIAPFRILEEHQSRLKALSKTVELGKRFFPRCSAVLDQIMNCEDLTQLACGEDDTAEKRLQKKQRYMEIQETLKKAFSEDNLELGNSSLTDSTSSTSKSTGGKRSNRKLSHRRR
modifications: left off: small tags and cut ends
notes: SUMOylation-deficient mutant of NPR1
NPR1-GFP; after SA treatment
  subcellular localization: predominant cytoplasmic localization
NPR1-GFP; lower SA concentration (1 mM), Arabidopsis seedlings
  cytoplasmic body formation: cytoplasmic bodies were also observed at the lower SA concentration
[1]; 1 mM SA for 5 hr
  condensate formation at lower SA concentration: could form condensates at a lower concentration of SA
CUL3
  CUL3 pull-down signal in co-IP: significantly stronger CUL3 pull-down signals
FLAG-WRKY70
  ubiquitination of WRKY70 in reconstituted NPR1-CRL3 cascade: could mediate ubiquitination of WRKY70

B2: S55/59D: phosphomimic mutant of NPR1 at S55/59 (protein)
chain: MDTTIDGFADSYEISSTSFVATDNTDSSIVYLAAEQVLTGPDVSALQLLSNSFEDVFDDPDDFYSDAKLVLSDGREVSFHRCVLSARSSFFKSALAAAKKEKDSNNTAAVKLELKEIAKDYEVGFDSVVTVLAYVYSSRVRPPPKGVSECADENCCHVACRPAVDFMLEVLYLAFIFKIPELITLYQRHLLDVVDKVVIEDTLVILKLANICGKACMKLLDRCKEIIVKSNVDMVSLEKSLPEELVKEIIDRRKELGLEVPKVKKHVSNVHKALDSDDIELVKLLLKEDHTNLDDACALHFAVAYCNVKTATDLLKLDLADVNHRNPRGYTVLHVAAMRKEPQLILSLLEKGASASEATLEGRTALMIAKQATMAVECNNIPEQCKHSLKGRLCVEILEQEDKREQIPRDVPPSFAVAADELKMTLLDLENRVALAQRLFPTEAQAAMEIAEMKGTCEFIVTSLEPDRLTGTKRTSPGVKIAPFRILEEHQSRLKALSKTVELGKRFFPRCSAVLDQIMNCEDLTQLACGEDDTAEKRLQKKQRYMEIQETLKKAFSEDNLELGNSSLTDSTSSTSKSTGGKRSNRKLSHRRR
modifications: left off: small tags and cut ends
[1]
  SA-induced cytoplasmic body/condensate (SINC) formation: inability to form SINCs; also recorded: fail to form cytoplasmic condensates
CUL3
  CUL3 pull-down signal in co-IP: very little signal

Source: patent US20230227838A1, “ENHANCED CELL SURVIVAL AGAINST BIOTIC AND ABIOTIC STRESSES THROUGH SALICYLICK ACID-INDUCED NPR1 CONDENSATES” (priority 2020, published 2023)
